Assay results: the supplement of paper PMC10307832

Key:
Assay in all cases: relative viability (nuclei count vs DMSO), 5 days (fraction); higher = more cells survive
JZL-184 = compound: C1CN(CCC1C(C2=CC3=C(C=C2)OCO3)(C4=CC5=C(C=C4)OCO5)O)C(=O)OC6=CC=C(C=C6)[N+](=O)[O-] [JZL-184]
Method in brief: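 After an overnight hold at 37 °C, lung cancer cell lines in 1536-well plates were pinned with five library-drug doses (not always all listed), each √10 from the next, on vehicle-anchored plates. The cells stayed 5 days without fresh medium, then a one-step fix, permeabilisation and Hoechst stain preceded 4× imaging and MetaXpress nuclear counts. A plate passed only with control CV under 25% and at least one doubling. Viability is the median, over plates, of treated-well nuclei relative to vehicle-well nuclei.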

JZL-184 + Navitoclax = compound: C1CN(CCC1C(C2=CC3=C(C=C2)OCO3)(C4=CC5=C(C=C4)OCO5)O)C(=O)OC6=CC=C(C=C6)[N+](=O)[O-] [JZL-184] + CC1(C)CCC(c2ccc(Cl)cc2)=C(CN2CCN(c3ccc(C(=O)NS(=O)(=O)c4ccc(N[C@H](CCN5CCOCC5)CSc5ccccc5)c(S(=O)(=O)C(F)(F)F)c4)cc3)CC2)C1 [Navitoclax] (partner 0.5 µM)
Method in brief: (§1)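 Lung cancer cell lines were seeded in 1536-well plates and dosed by pin tool the next day, with either a single drug or a fixed anchor-drug dose combined with five library-drug doses (not always all listed) spaced in √10 steps. Five days later, one step fixed the cells and stained their nuclei (final 0.05% Triton X-100, 1% formaldehyde, 1 ug/ml Hoechst), and nuclei were counted on 4× images. Relative viability is the nuclei count in treated wells divided by the count in vehicle wells, and each value is the median of duplicate plates.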

JZL-184 + Lapatinib = compound: C1CN(CCC1C(C2=CC3=C(C=C2)OCO3)(C4=CC5=C(C=C4)OCO5)O)C(=O)OC6=CC=C(C=C6)[N+](=O)[O-] [JZL-184] + CS(=O)(=O)CCNCc1ccc(-c2ccc3ncnc(Nc4ccc(OCc5cccc(F)c5)c(Cl)c4)c3c2)o1 [Lapatinib] (partner 2 µM)
Method in brief: as §1

JZL-184 + Dasatinib = compound: C1CN(CCC1C(C2=CC3=C(C=C2)OCO3)(C4=CC5=C(C=C4)OCO5)O)C(=O)OC6=CC=C(C=C6)[N+](=O)[O-] [JZL-184] + Cc1nc(Nc2ncc(C(=O)Nc3c(C)cccc3Cl)s2)cc(N2CCN(CCO)CC2)n1 [Dasatinib] (partner 0.075 µM)
Method in brief: as §1

JZL-184 + Vorinostat = compound: C1CN(CCC1C(C2=CC3=C(C=C2)OCO3)(C4=CC5=C(C=C4)OCO5)O)C(=O)OC6=CC=C(C=C6)[N+](=O)[O-] [JZL-184] + O=C(CCCCCCC(=O)Nc1ccccc1)NO [Vorinostat] (partner 1 µM)
Method in brief: as §1

Row | Cell Line | relative viability (JZL-184; 0.04 µM) | relative viability (JZL-184; 0.4 µM) | relative viability (JZL-184; 1.265 µM) | relative viability (JZL-184; 4 µM) | relative viability (JZL-184 + Navitoclax; first compound 0.04 µM) | relative viability (JZL-184 + Navitoclax; first compound 0.4 µM) | relative viability (JZL-184 + Navitoclax; first compound 1.265 µM) | relative viability (JZL-184 + Navitoclax; first compound 4 µM) | relative viability (JZL-184 + Lapatinib; first compound 0.04 µM) | relative viability (JZL-184 + Lapatinib; first compound 0.4 µM) | relative viability (JZL-184 + Lapatinib; first compound 1.265 µM) | relative viability (JZL-184 + Lapatinib; first compound 4 µM) | relative viability (JZL-184 + Dasatinib; first compound 0.04 µM) | relative viability (JZL-184 + Dasatinib; first compound 0.4 µM) | relative viability (JZL-184 + Dasatinib; first compound 1.265 µM) | relative viability (JZL-184 + Dasatinib; first compound 4 µM) | relative viability (JZL-184 + Vorinostat; first compound 0.04 µM) | relative viability (JZL-184 + Vorinostat; first compound 0.4 µM) | relative viability (JZL-184 + Vorinostat; first compound 1.265 µM) | relative viability (JZL-184 + Vorinostat; first compound 4 µM)
1 | NCI-H1993 | 0.943 | 0.982 | 1.08 | 0.916 | 0.906 | 0.884 | 1.06 | 1.03 | 0.767 | 0.807 | 0.827 | 0.885 | 0.498 | 0.617 | 0.709 | 0.674 | 0.907 | 0.736 | 1.21 | 0.764
2 | NCI-H460 | 1.06 | 0.884 | 0.974 | 0.975 | 1.37 | 1.02 | 1.02 | 1.12 | 1.86 | 0.894 | 1.09 | 0.881 | 0.62 | 0.394 | 0.553 | 0.503 | 0.675 | 0.597 | 0.779 | 0.624
3 | NCI-H1975 | 0.996 | 0.938 | 1.01 | 0.915 | 1.3 | 0.967 | 1.2 | 1.05 | 1.08 | 0.824 | 1.02 | 0.888 | 0.427 | 0.356 | 0.347 | 0.31 | 0.731 | 0.694 | 0.718 | 0.635
4 | RERF-LC-KJ | 1.05 | 0.981 | 1.02 | 0.988 | 1.01 | 1.1 | 0.951 | 0.825 | 0.961 | 0.835 | 0.874 | 0.772 | 0.909 | 0.72 | 0.864 | 0.759 | 0.707 | 0.642 | 0.699 | 0.614
5 | NCI-H322M | 0.951 | 0.926 | 0.982 | 0.774 | 1.18 | 1.26 | 1.32 | 1.31 | 0.654 | 0.599 | 0.562 | 0.578 | 0.252 | 0.265 | 0.264 | 0.252 | 0.882 | 0.784 | 0.867 | 0.684
6 | NCI-H1651 | 1.08 | 0.907 | 1 | 0.967 | 1.07 | 0.99 | 1.07 | 1.12 | 0.833 | 0.715 | 0.888 | 0.798 | 0.407 | 0.376 | 0.487 | 0.42 | 0.593 | 0.36 | 0.5 | 0.554
7 | HARA | 0.995 | 0.814 | 1.05 | 0.831 | 1.19 | 1.06 | 1.15 | 1.14 | 0.839 | 0.773 | 0.807 | 0.751 | 0.309 | 0.16 | 0.29 | 0.28 | 0.608 | 0.557 | 0.681 | 0.395
8 | H3255 | 1.1 | 0.871 | 1.07 | 0.885 | 0.589 | 0.492 | 0.678 | 0.522 | 0.234 | 0.267 | 0.261 | 0.321 | 0.353 | 0.346 | 0.288 | 0.38 | 0.849 | 0.819 | 0.857 | 0.722
9 | CAL-12T | 1.23 | 0.856 | 1.13 | 0.949 | 1.33 | 1.1 | 1.15 | 1.15 | 0.701 | 0.529 | 0.789 | 0.593 | 0.515 | 0.254 | 0.488 | 0.341 | 0.86 | 0.805 | 0.88 | 0.717
10 | NCI-H1437 | 1.04 | 0.948 | 1.02 | 0.961 | 1.1 | 0.959 | 0.965 | 1.06 | 0.984 | 0.717 | 0.773 | 0.759 | 0.414 | 0.304 | 0.434 | 0.405 | 0.731 | 0.725 | 0.756 | 0.659
11 | HOP-62 | 1.08 | 1.01 | 1.04 | 1.01 | 1.13 | 0.739 | 1.07 | 1.1 | 1.19 | 1 | 0.665 | 0.986 | 0.561 | 0.679 | 0.659 | 0.631 | 0.659 | 0.601 | 0.706 | 0.612
12 | EPLC-272H | 1 | 0.914 | 1.15 | 0.937 | 1.12 | 1.11 | 1.2 | 1.25 | 1.07 | 1.02 | 0.972 | 0.944 | 0.403 | 0.41 | 0.445 | 0.325 | 0.509 | 0.536 | 0.402 | 0.53
13 | COR-L 105 | 1.13 | 0.876 | 1.1 | 0.812 | 0.878 | 0.813 | 0.905 | 0.585 | 0.349 | 0.352 | 0.394 | 0.327 | 0.493 | 0.389 | 0.35 | 0.336 | 0.789 | 0.8 | 0.905 | 0.82
14 | HCC-366 | 1.09 | 0.958 | 1.06 | 1.02 | 1.21 | 1.03 | 1.07 | 1.06 | 1.19 | 0.959 | 1.13 | 1.05 | 0.892 | 0.64 | 0.61 | 0.638 | 0.408 | 0.242 | 0.361 | 0.313
